Experimental data as given in patent US20100267803A1, “Regulators Of Fat Metabolism As Anti-Cancer Targets” (The Research Foundation of State University Of New York, priority 2008, published 2010).

What was measured:
Format in all cases: cell-based, human
[1] = system: BT474 cells; experiment: Neutral fat stores by BODIPY 493/503 staining; conditions: first 48 h after transfection
Experimental: (§1) FIG. 4 NR1D1 and PBP coordinate fatty acid metabolism in breast cancer cells. (a) BT474, MDA-MB-361, MCF-7 and HMEC cells were stained with Oil-Red O lipid and hematoxylin nuclear stains. (b) Fat stores were quantified by BODIPY 493/503 lipid probe staining (Error bars are s.d from 3 individual experiments). (c) FASN, ACLY, ACACA and FADS2 mRNA levels of BT474 cells treated with luciferase (control), PBP or NR1D1 shRNAs, or with vehicle and 20 μM of GW9662 for 48 h, analyzed by qRT-PCRs. (Error bars are s.d from 3 experiments; ***P<0.001, **P=0.005) (d) BT474 cells were transfected with FASN, ACLY and ACACA shRNAs and co-transfected with GFP. Transfected cells were counted at 24 h and 72 h and the 72h-to-24 h ratio for each shRNA was calculated and expressed as % of the control shRNA (luciferase). (Error bars are s.d from 3 individual experiments; **P<0.01, ***P<0.002). (e) BODIPY images and (f) quantification of BT474 cells transfected with luciferase (control), PBP or NR1D1 shRNAs and co-transfected with DsRed (Error bars are s.d from 3 individual experiments; ***P<0.03). Arrows indicate transfected cells.
Metabolic assays. […] Transfected cells were monitored by co-transfecting with the pDsRed-Monomer-N1 vector (Clontech). Cells were imaged and analyzed using the In Cell Analyzer 1000—In Cell Investigator 3.4 system (GE Biosciences), as described above. […]

[2] = system: BT474 cells; experiment: Counts of GFP co-transfected BT474 cells (cell death / viability); conditions: shRNA co-transfected with GFP, counted up to 72 h
Experimental: Results are shown as percentage of control. (**P=0.03). (c) BT474 cells were transfected with luciferase (control), PBP and NR1D1 shRNAs and co-transfected with GFP. Green cells were counted at intervals and expressed as percentage of control. (Error bars are s.d from 3 individual experiments; *P<0.08, **P<0.03, ***P<0.005). (d) BT474 cells were transfected with luciferase (control), PBP or NR shRNAs for 48 h. Immunofluorescence was performed for cleaved Caspase-3 signal; cell nuclei were stained with Hoechst 33243. (e) Cells from […] were counted for cleaved Caspase-3 signal. (Error bars are s.d from 3 individual experiments; ***P<0.0003). (f) BT474 cells were transfected with luciferase (control) PBP, NR1D1 or PBP and NR1D1 shRNAs together and co-transfected with GFP. Transfected cells were counted at 24 h and 72 h and the 72 h-to-24 h ratio for each shRNA was calculated and expressed as % of the control shRNA (luciferase). (Error bars are s.d from 3 individual experiments; **P=0.01, ***P<0.002). (g) Cells from (f) were counted for cleaved Caspase-3 signal. (Error bars are s.d from 3 individual experiments; ***P<0.0001). (h) ERBB2 mRNA levels of BT474 cells transfected with luciferase (control), PBP or NR1D1 shRNAs for 48 h, analyzed by qRT-PCRs. (Error bars are s.d from 3 individual experiments; ***P=0.0001).
as §1
FIG. 5. (a) MDH1 and ME1 mRNA levels of BT474 cells treated with luciferase (control), PBP or NR1D1 shRNAs for 48 h, analyzed by qRT-PCRs. (Error bars are s.d from 3 experiments; **P<0.002 (b) BT474 and MCF-7 cells were transfected with luciferase (control) MDH1 and ME1 shRNAs (Error bars are s.d from 3 individual experiments; ***P=0.0003). (c) BT474 cells) assayed for cleaved Caspase-3 signal by immunofluorescence 48 h after transfection; cell nuclei were stained with Hoechst 33243. (d) Quantification of cleaved Caspase-3 signal from cells in (c). (Error bars are s.d from 3 individual experiments; ***P<0.005). (e) Enzymes involved in fatty acid synthesis and storage that are regulated by NR1D1 and PBP and their proposed contribution to energy production necessary for survival of ERBB2-positive breast cancer cells.
(§2) Cell viability—apoptosis assays. […] At least 30 fields were imaged per single experiment. […] Immunoblotting. […] PCR reaction was run using standard conditions.

[3] = system: ACLY mRNA; experiment: qRT-PCR of ACLY mRNA in BT474 cells; conditions: shRNA or 20 μM GW9662 for 48 h
Experimental: as §1, §2

PBP shRNA: shRNA, mature sequence CCGAGTTCCTCTTATCCTA (shRNA)
decrease in fat stores [1]: 30%
cell death / viability (cell number of transfected cells) [2]: time-dependent decrease of cell number
ACLY transcript level [3]: reduced

NR1D1 shRNA: shRNA, mature sequence GGCATGGTGTTACTGTGTA (shRNA)
decrease in fat stores [1]: 47%
cell death / viability (cell number of transfected cells) [2]: time-dependent decrease of cell number
ACLY transcript level [3]: reduced
